Test in all cases: NCI anticancer screen, dose series, 48 h
Experiment [1] relates to 786-0 renal.
Experiment [2] concerns EKVX NSCLC.
The subject of experiment [3] is HL-60(TB) leukemia.
For experiment [4], the system named is HOP-62 NSCLC.
The test system of experiment [5] is NCI-H460 lung.
In experiment [6] the test system is NCI-H522 lung.
Experiment [7] has as its system SK-MEL-5 melanoma.
Experiment [8] relates to KM12 colon.
Experiment [9] deals with BT-549 breast.

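48-hour exposure; five concentrations; linearly interpolated endpoints. GI50 marks 50% less growth. TGI marks complete inhibition of growth.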 Where only a bound is given, the exact number is not on record here.

For `CC(=O)O[C@@H]1CC(C)C2CC2C2=C(C(O)OC2O)[C@@H]1C(C)CCC=C(C)C` (some centres not stated), the TGI in experiment [1] is 40.3 µM; in [2], greater than 100 µM; in experiment [3], 43.1 µM; in experiment [4] it was 56 µM; in experiment [5], 38.3 µM; in [6], 31.5 µM. In experiment [7], this molecule came in with a TGI of 60.6 µM.

Consider `CN(C)c1ccc(/C=C2\N=C(c3ccc(N)cc3)OC2=O)cc1`, for which the TGI in experiment [1], in experiment [2], in [3], in experiment [4], in [8] and in [5] was greater than 100 µM in each case. Further, the TGI in experiment [6] and in [7] was greater than 100 µM in each case.

As for `Fc1ccc(-c2nnc3sc(-c4cccc(Cl)c4)nn23)cc1Cl`, the GI50 in experiment [1] was greater than 100 µM; in [9], greater than 100 µM; in [2] it was greater than 100 µM; in experiment [3], greater than 100 µM; in experiment [4], greater than 100000 nM; in experiment [8], greater than 100 µM. The GI50 in experiment [5], in [6] and in experiment [7] was greater than 100 µM in each case. Besides, the TGI in [1], in experiment [9], in experiment [2], in [3], in experiment [4] and in experiment [8] was greater than 100 µM each time. Besides, the TGI in experiment [5], in experiment [6] and in [7] was greater than 100 µM in each case.

Consider `N#CC1(c2nc3ccccc3o2)C(=O)C(=O)N(c2ccc(Cl)c(Cl)c2)C(=O)C1=O`, for which the TGI in experiment [1], in experiment [2], in experiment [3], in experiment [4], in experiment [8] and in [5] was greater than 100 µM throughout. Further, the TGI in experiment [6] and in experiment [7] was greater than 100 µM each time.

For `Cc1cc(N/N=C/c2nc(-c3ccccc3)oc2C)c2cc(Cl)ccc2n1`, the GI50 in experiment [1] is 1.64 µM; in experiment [9], 14.9 µM; in experiment [2], 1.99 µM; in [4], 1850 nM; in experiment [5] it was 1.88 µM; in experiment [7], 1.76 µM. Further, the TGI was 3.38 µM in experiment [1]; 29.3 µM in experiment [9]; 4.53 µM in [2]; 3.66 µM in [4]; 3.61 µM in [5]; 3.2 µM in [7].

For the molecule `CNC1NC(=O)c2ccccc2N1Cc1ccc(F)cc1` (configuration not stated), the TGI in [1], in [9], in [2], in experiment [3], in experiment [4] and in experiment [8] was greater than 100 µM each time. The TGI in [5], in experiment [6] and in experiment [7] was greater than 100 µM each time.

For the molecule `C=C(CN1CCN(c2ccccc2F)CC1)c1ccc(C(=O)Nc2ccccc2N)cc1`, the GI50 in experiment [1] is 1.88 µM; in experiment [9] it was 1.46 µM; in experiment [2] it was 4.67 µM; in [3], 0.353 µM; in experiment [4], 1150 nM; in experiment [8] it was 1.53 µM. Besides, the GI50 in [5] is 4.44 µM; in experiment [6] it was 1.48 µM; in [7], 1.51 µM. The TGI in [1] is greater than 100 µM; in experiment [9], 8.82 µM; in experiment [2], greater than 100 µM; in experiment [3], 2.87 µM; in [4] it was 9.45 µM; in [8], 11.4 µM. Further, the figures for the TGI in experiment [5], in experiment [6] and in experiment [7] were greater than 100 µM, 4.41 µM and 16.8 µM, respectively.

For `CC(C)(C)C(=O)C(c1ccc(-c2cscn2)cc1)c1ccc(-c2cscn2)cc1`, the TGI in [1] is 78.7 µM; in [2], greater than 100 µM; in [3], greater than 100 µM; in experiment [4], 40.6 µM; in experiment [8] it was greater than 100 µM; in experiment [5] it was greater than 100 µM. Also, the TGI in experiment [6] and in experiment [7] was greater than 100 µM in each case.

As to `Cc1cc2c(c(C#N)c1C)NC(=O)C(CC(=O)O)C2=O` (configuration not stated), the TGI in experiment [1], in experiment [2], in experiment [3], in [4], in [8] and in experiment [5] was greater than 100 µM each time. Further, the TGI in experiment [7] is greater than 100 µM.

Take `c1cncc(C(Nc2cccc3cccnc23)Nc2cccc3cccnc23)c1`: the TGI in experiment [1], in [9], in experiment [2], in [3], in [4] and in experiment [8] was greater than 100 µM in each case. In addition, the TGI in experiment [5], in experiment [6] and in [7] was greater than 100 µM each time.

For the molecule `C#CC[C@H](c1nc2cc(Cl)ccc2c(=O)n1Nc1ccccc1)N(CCCN)C(=O)c1cccc(Cl)c1F`, the GI50 in [1] was 1.15 µM; in [9], 0.798 µM; in [3], 0.13 µM; in experiment [4] it was 842 nM; in [8], 0.18 µM; in experiment [5] it was 0.161 µM. The results for the GI50 in experiment [6] and in experiment [7] were 0.0898 µM and 0.727 µM, respectively. Further, the TGI in experiment [1] is 2.63 µM; in experiment [9] it was 3.33 µM; in experiment [3], 0.605 µM; in experiment [4] it was 2.23 µM; in [8] it was 1.63 µM; in experiment [5], 1.31 µM. Moreover, the values for the TGI in [6] and in [7] were 0.935 µM and 2.14 µM, respectively.

For the molecule `CCOC(=O)C#Cc1ccc(C#CC(=O)OCC)cc1`, the TGI in experiment [1] was greater than 27.9 µM; in experiment [9] it was greater than 21.7 µM; in [2], greater than 24.7 µM; in [3], 6.34 µM; in experiment [4], greater than 29.3 µM; in [8], greater than 21.2 µM. Further, the TGI in experiment [5] was greater than 46.8 µM; in experiment [7], greater than 27.4 µM.

Regarding `Cc1nc(NC(=S)Nc2ccc(F)cc2)sc1C(=O)NNC(=S)Nc1ccc(F)cc1`, the GI50 in [1] is 21.9 µM; in experiment [9], 14.9 µM; in [2], 4.61 µM; in experiment [3] it was 3.68 µM; in experiment [4], 26500 nM; in experiment [8], 3.11 µM. For the same molecule, the GI50 in [5] was 3.85 µM; in experiment [6], 21.1 µM; in [7], 3.5 µM. Also, the TGI in experiment [1] is 89.1 µM; in experiment [9] it was 45.2 µM; in [2] it was greater than 100 µM; in experiment [3], 27.8 µM; in experiment [4], 82.5 µM; in experiment [8], 13.4 µM. For the same molecule, the TGI in experiment [5] is 16.2 µM; in [6], greater than 100 µM; in [7] it was 15.2 µM.

For the molecule `CN(/N=N/c1nc(OCc2ccccc2)c2[nH]cnc2n1)C(=O)N(C)/N=N/c1nc(OCc2ccccc2)c2[nH]cnc2n1`, the GI50 is 59.7 µM in experiment [1]; 36.6 µM in [9]; 38.3 µM in [2]; 63.7 µM in experiment [3]; 96100 nM in experiment [4]; 84.2 µM in experiment [8]. For the same molecule, the GI50 in experiment [5] is 26.1 µM; in experiment [6] it was 39.4 µM; in experiment [7] it was 20.9 µM. In addition, the TGI in experiment [1], in experiment [9], in [2], in experiment [3], in experiment [4] and in [8] was greater than 100 µM throughout. Moreover, the TGI is greater than 100 µM in [5], greater than 100 µM in experiment [6] and 61.5 µM in experiment [7].

In the case of `CCCCC(=O)[O-].N.N.N.N.N.[Co+3].[O-][Cl+3]([O-])([O-])[O-]`, the GI50 in experiment [1] was greater than 100 µM; in experiment [2], greater than 100 µM; in experiment [4], greater than 100000 nM; in [8], greater than 100 µM; in experiment [5] it was greater than 100 µM; in experiment [6] it was greater than 100 µM. For the same molecule, the GI50 in experiment [7] was greater than 100 µM. Further, the TGI in [1], in experiment [2], in [4], in [8], in [5] and in experiment [6] was greater than 100 µM each time. In experiment [7], this molecule had a TGI greater than 100 µM.

Take `CCS(=O)(=O)c1ccc(OC)c(Nc2nccc(N(C)c3ccc4c(C)[nH]nc4c3)n2)c1`: the GI50 in experiment [1] is 5.79 µM; in experiment [9] it was 5.76 µM; in experiment [2], 6.85 µM; in [3] it was 7.37 µM; in experiment [4] it was 6720 nM; in experiment [8] it was 5.7 µM. The GI50 in [5] was 8.67 µM; in experiment [6], 3.57 µM; in [7], 4 µM. The TGI in [1] was 18.4 µM; in experiment [9] it was 14.5 µM; in experiment [2], greater than 25 µM; in experiment [3], 18.9 µM; in [4] it was greater than 25 µM; in experiment [8], greater than 25 µM. Besides, the figures for the TGI in experiment [5], in experiment [6] and in experiment [7] were greater than 25 µM, 10.5 µM and 8.38 µM, respectively.

As to `Cl.Fc1c[c-]c(-c2ccccn2)c(F)c1.[Pt].c1ccc([PH+](CC[PH+](c2ccccc2)c2ccccc2)c2ccccc2)cc1`, the GI50 in [1] is 0.231 µM; in [9], 0.0867 µM; in experiment [3], 0.0563 µM; in experiment [4] it was 186 nM; in experiment [8] it was 0.0772 µM; in experiment [7], 0.13 µM. In addition, the TGI in experiment [1] came out at 1.06 µM; in [9] it was 0.978 µM; in [3], 0.319 µM; in [4] it was 0.688 µM; in experiment [8], 0.277 µM; in experiment [7], 0.261 µM.

For the molecule `O=C(c1ccc(NCN2C(=O)CCC2=O)cc1)c1ccc(NCN2C(=O)CCC2=O)cc1`, the TGI in [1] was greater than 100 µM; in [2], greater than 100 µM; in experiment [3] it was 49.5 µM; in experiment [4] it was greater than 100 µM; in experiment [8], greater than 100 µM; in experiment [5], greater than 100 µM. Besides, the TGI in experiment [6] and in experiment [7] was greater than 100 µM throughout.

In the case of `O=C(N/N=C/c1cc(Br)cc(Br)c1[O-])c1ccccc1O.O=C(N/N=C/c1cc(Br)cc(Br)c1[O-])c1ccccc1O.[Mn+2]`, the GI50 in experiment [1] was 0.887 µM. Moreover, the TGI in [1] is 15.9 µM; in experiment [2], 34.6 µM; in experiment [3] it was 2.81 µM; in experiment [4], 25.9 µM; in [8], 22.9 µM; in experiment [5], 13.9 µM. In [7], the TGI came to 19.2 µM.

`O[C@]12CCCC[C@H]1CCC2`: the TGI in experiment [1], in experiment [2], in experiment [3], in [4], in [8] and in experiment [5] was greater than 100 µM in each case. In addition, the TGI in [6] and in experiment [7] was greater than 100 µM in each case.

As for `C=CCN=C1N=C(CC(=O)OCC)CS1`, the TGI in experiment [1], in [2], in [3], in experiment [4], in experiment [8] and in experiment [5] was greater than 100 µM throughout. In addition, the TGI in [6] and in experiment [7] was greater than 100 µM in each case.

Turning to `CCOC(=O)NC(=O)c1cn(CCCOC(=O)CCCCCCCCC(=O)OCCCn2cc(C(=O)NC(=O)OCC)c(=O)[nH]c2=O)c(=O)[nH]c1=O`, the TGI in experiment [1] was 84.5 µM; in experiment [2] it was greater than 100 µM; in experiment [3], 26.4 µM; in experiment [4], greater than 100 µM; in [5], greater than 100 µM; in [7] it was greater than 100 µM.

For the molecule `O=[N+]([O-])c1cc(Br)cc2c1[nH]c1ccc(Br)cc12`, the GI50 in experiment [1] is 5.47 µM; in experiment [9] it was 18.7 µM; in experiment [2], 3.19 µM; in [4] it was 2110 nM; in [8] it was 13.3 µM; in experiment [5] it was 4.66 µM. Further, the GI50 was 3.09 µM in experiment [6] and 8.03 µM in [7]. In addition, the TGI in [1] is 27.4 µM; in [9] it was 58 µM; in experiment [2], greater than 100 µM; in [4], 5 µM; in experiment [8], greater than 100 µM; in experiment [5], 66.6 µM. Besides, the values for the TGI in experiment [6] and in [7] were 40.3 µM and greater than 100 µM, respectively.

The values above are taken from PubChem BioAssay (NCI).
